The assay relates to HEK293T GAL4DBD-only luciferase reporter, luminescence counterscreen. Kind of assay: Gal4 DBD-only luciferase reporter interference, late-stage follow-up, counter-screen for DAX1 inhibitor project, cell-based, luminescence, HEK293T, empty GAL4DBD, dose response (AID 588821).

Usually IC50 stands for the point on the concentration scale where inhibition reaches its midpoint.

Calls of active or inactive are those of the source.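 Rule for the calls: active = IC50 at or below 10 µM; inactive = IC50 above 10 µM.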

On to `COc1ccc(OC)c(C(C)NC(=O)c2ccc(C(C)(C)C)cc2)c1` (centres undefined), for which the IC50 was > 69.5 µM (inactive).

With `COc1ccc(OC)c(C(C)NC(=O)c2cccc(F)c2)c1` (centres undefined), the IC50 is > 69.5 µM (inactive).

Consider `COc1ccc(OC)c(C(C)NC(=O)c2ccc3c(c2)OCCO3)c1` (centres undefined), for which the IC50 was > 69.5 µM (inactive).

On to `O=C(Nc1ccc2c(c1)OCO2)c1ccc(C2SCC(=O)N2Cc2ccccc2)cc1` (centres undefined), for which the IC50 was > 69.5 µM (inactive).

In the case of `COc1ccc(OC)c(C(C)NC(=O)c2ccc(Cl)cc2)c1` (centres undefined), the IC50 is > 69.5 µM (inactive).

With `CSc1ccccc1C(=O)Nc1ccc2c(c1)OCO2`, the IC50 was > 69.5 µM (inactive).

In the case of `Cn1c(=O)n(C)c2cc(C(=O)Nc3ccc4c(c3)OCO4)ccc21`, the IC50 is > 69.5 µM (inactive).

`COc1ccc(OC)c(C(C)NC(=O)c2cccc(C)c2)c1` (centres undefined): the IC50 is > 69.5 µM (inactive).

Turning to `COc1ccc(OC)c(C(C)NC(=O)c2ccccc2)c1` (centres undefined), the IC50 was > 69.5 µM (inactive).

As to `O=C(Nc1ccc2c(c1)OCO2)c1cccs1`, the IC50 is > 69.5 µM (inactive).

As to `COc1ccc(OC)c(C(C)NC(=O)c2cccc3ccccc23)c1` (centres undefined), the IC50 was > 69.5 µM (inactive).

Take `O=C(Cc1cccs1)Nc1ccc2c(c1)OCO2`: the IC50 is > 69.5 µM (inactive).

Turning to `COc1ccc(OC)c(C(C)NC(=O)c2ccc(F)cc2)c1` (centres undefined), the IC50 is > 69.5 µM (inactive).

With `COc1ccc(OC)c(C(C)NC(=O)c2ccccc2Cl)c1` (centres undefined), the IC50 was > 69.5 µM (inactive).

Take `CSc1ccccc1C(=O)Nc1ccc2c(c1)OCCO2`: the IC50 is > 69.5 µM (inactive).

Consider `COc1cccc(C(=O)NC(C)c2cc(OC)ccc2OC)c1` (centres undefined), for which the IC50 is > 69.5 µM (inactive).

For `COc1ccc(OC)c(C(C)NC(=O)c2ccccc2C)c1` (centres undefined), the IC50 was > 69.5 µM (inactive).

As for `Cn1c(=O)n(C)c2cc(C(=O)Nc3ccc4c(c3)OCCO4)ccc21`, the IC50 is > 69.5 µM (inactive).

Regarding `COc1ccc(OC)c(C(C)NC(=O)c2c(F)cccc2Cl)c1` (centres undefined), the IC50 is > 69.5 µM (inactive).

Consider `O=C(Nc1ccc2c(c1)OCO2)c1ccc2ccccc2c1`, for which the IC50 was 0.202 µM.

Turning to `COc1ccc(OC)c(C(C)NC(=O)c2ccc(C)cc2)c1` (centres undefined), the IC50 is > 69.5 µM (inactive).

Turning to `O=C(Nc1ccc2c(c1)OCO2)c1ccc(C2SCC(=O)N2Cc2ccco2)cc1` (centres undefined), the IC50 was > 69.5 µM (inactive).

Regarding `COc1ccc(OC)c(C(C)NC(=O)c2ccccc2F)c1` (centres undefined), the IC50 was > 69.5 µM (inactive).

Consider `Cc1occc1C(=O)Nc1ccc2c(c1)OCO2`, for which the IC50 is > 69.5 µM (inactive).
